# Test results reported in US20190031717A1, “MULTI-FUNCTIONAL FUSION POLYPEPTIDE, PREPARATION METHOD THEREOF, AND APPLICATION OF SAME” (NANJING ANJI BIOLOGICAL TECHNOLOGY CO., LTD, priority 2016, published 2019).
# Legend:
# [1] = system: A549 cells induced by TGF-β1 (lung fibrosis model); assay: Hydroxyproline content in TGF-β1-induced A549 pulmonary fibrosis cell model; format: cell-based, human; details: for Hydroxyproline Content Inhibition Rate in the Pulmonary Fibrosis Model: 48 hours
# Procedure: Human non-small cell lung cancer cells A549 were cultured in DMEM medium containing 10% (volume fraction) fetal bovine serum, cultured in a carbon dioxide incubator with a volume fraction of 5% at 37° C., and changed once every other day, depending on cell density. A549 cells in logarithmic growth phase were digested with 0.25% trypsin to prepare a cell suspension, adjusted to a cell concentration of 1×10^9 cells/L, and seeded at a density of 4×10^5 cells/cm2 in a cell culture dish of 90 cm^2. The cells were randomly divided into two groups: (1) control group: cultured in DMEM containing 10% (volume fraction) fetal bovine serum; (2) model group: containing 10% (volume fraction) fetal bovine serum, transforming growth factor (TGF-β1, final concentration 5 μg/L) was cultured in DMEM. The cells were cultured at 37° C. in a volumetric 5% carbon dioxide incubator, and changed every other day, depending on the cell density. Cell morphology was observed daily using an inverted microscope to determine when the model was established. When A549 cells are changed from the cobblestone shape of the original epithelial cells to the long spindle shape of the interstitial cells, the modeling is successfully established.
# After 48 hours of addition of the polypeptides, the cells of the control group, the model group, and the administration group were collected for subsequent measurement of molecular markers related to pulmonary fibrosis.
# Hydroxyproline accounts for 13.4% of collagen, so the content of hydroxyproline can reflect the accumulation of collagen during pulmonary fibrosis, which in turn reflects the degree of pulmonary fibrosis.
# Prepare citric acid buffer: 120 g of sodium citrate, 12 mL of glacial acetic acid, 46 g of citric acid, 34 g of sodium hydroxide, dissolved in distilled water, adjust the pH to 6.0, and then dilute to 1000 mL.
# Prepare 0.05 mol/L chloramine T solution: weigh 7.05 g of chloramine T, dissolve in 100 mL of distilled water, then add 150 mL of ethylene glycol, and add 250 mL of citric acid buffer to mix well.
# Prepare p-dimethylaminobenzaldehyde: Reagent A: Take 20 mL of absolute ethanol, slowly add 2.74 mL of concentrated sulfuric acid; Reagent B: Take 12.0 g of p-dimethylaminobenzaldehyde, slowly add 40 mL of absolute ethanol. Heat in a water bath to completely dissolve and cool to room temperature, then slowly add the A solution to B and mix well.
# Prepare a […] perchloric acid solution: take 27 mL of perchloric acid and dilute to 100 mL with distilled water.
# The specific steps are as follows: collect the cells in a 1 mL water solution and lyse the cells using a homogenizer; adjust the pH to neutral, dilute to 3 mL, add activated carbon to centrifuge; take 1 mL supernatant, add 1 mL solution 1 (1 mL citrate buffer and 1 mL 0.05 mol/L chloramine T solution), stand for 10 minutes, add 1 mL of perchloric acid, stand for 5 minutes, add 1 mL of p-dimethylaminobenzaldehyde reagent, keep in 60° C. water bath for 15 minutes; centrifuge at 3500 rpm/min for 10 minutes, take the supernatant to measure the absorbance value at a wavelength of 550 nm.
# The test was repeated 3 times independently, and the inhibition rate was calculated as follows: inhibition rate (%)=(1−experimental group absorbance/model group absorbance)×100%.
# Mycoplasma pneumoniae = assay: Mouse pneumonia model, mycoplasma; format: in vivo, BALB/C mice; set-up: concentration or dose not given beside the values; details: mean ± SD
# Procedure: (§1) The mouse pneumonia model was successfully established by the nose-drop method. To build the mouse pneumonia model, BALB/C mice with a body mass of 16-22 g were selected and anesthetized pneumonia chain was prepared after anesthesia with ether on day 0, day 1, and day 2. Staphylococcal fluid, adenovirus concentrate, Mycoplasma pneumoniae, Chlamydia pneumoniae, protozoa, and pneumonia fungi were slowly dripped into the nasal cavity of the mice, so that they enter the tracheobronchial. During the operation process, care was exercised to prevent bacterial fluid from flowing into the esophagus, which leads to inactivation the bacterial fluid. After successful model establishment, the polypeptides of the present invention were administered, and the results were shown in Table 5. […] The results were expressed in average value±standard deviation.
# protozoa = assay: Mouse pneumonia model, protozoal; format: in vivo, BALB/C mice; set-up: concentration or dose not given beside the values; details: mean ± SD
# Procedure: as §1
# pneumonia fungi = assay: Mouse pneumonia model, fungal; format: in vivo, BALB/C mice; set-up: concentration or dose not given beside the values; details: mean ± SD
# Procedure: as §1
# Adenocarcinoma = assay: MTT assay, lung cancer tumor cells; format: cell-based, human; set-up: concentration or dose not given beside the values; details: 48 h, mean ± SD
# Procedure: (§2) The inhibition of the growth of human lung cancer tumor cells by the polypeptide of the present invention was examined by MTT assay. The lung cancer tumor cells were cultured in a 37° C., 5% (volume fraction) CO2 incubator to a density of 90% or more, and collected by trypsinization. The cells were resuspended in the culture medium and counted under a microscope to adjust the cell concentration to 2.0×10^4 cells/mL, the cell suspension was inoculated into a 96-well plate at 100 μL per well, and cultured overnight at 37° C. in a 5% (volume fraction) CO2 incubator. After the cells were completely adhered, the polypeptide of the present invention was added as a drug-administered group, and a culture solution containing no drug was used as a blank control group, and the culture solution was diluted to each predetermined concentration. Each dilution was separately added to a 96-well plate at 100 μL per well and incubated for 48 h at 37° C. in a 5% (volume fraction) CO2 incubator. 20 μL of 5 mg/mL MTT was added to each well of a 96-well plate, and incubation was continued for 4 hours. The medium was aspirated, and the cells were dissolved in 100 μL of DMSO per well. The absorbance was measured by a microplate reader at a detection wavelength of 570 nm and a reference wavelength of 630 nm, and the growth inhibition rate was calculated as follows: tumor growth inhibition rate (%)=(1−administered group absorbance value/unadministered group absorbance value)×100%, and the experiment was repeated 3 times independently. The results obtained by the test were expressed as mean±standard deviation. The results in Table 6 indicate that the polypeptides of the present invention have a good inhibitory effect on proliferation of a variety of human lung cancer tumors (FIG. 5).
# Adenosquamous carcinoma = assay: MTT assay, lung cancer tumor cells; format: cell-based, human; set-up: concentration or dose not given beside the values; details: 48 h, mean ± SD
# Procedure: as §2
# Large cell lung cancer = assay: MTT assay, lung cancer tumor cells; format: cell-based, human; set-up: concentration or dose not given beside the values; details: 48 h, mean ± SD
# Procedure: as §2
# [2] = system: Non-small cell lung cancer; assay: MTT assay, lung cancer tumor cells; format: cell-based, human; set-up: concentration or dose not given beside the values; details: 48 h, mean ± SD
# Procedure: as §2
# Small Cell Lung Cancer = assay: MTT assay, lung cancer tumor cells; format: cell-based, human; set-up: concentration or dose not given beside the values; details: 48 h, mean ± SD
# Procedure: as §2
# Squamous cell carcinoma = assay: MTT assay, lung cancer tumor cells; format: cell-based, human; set-up: concentration or dose not given beside the values; details: 48 h, mean ± SD
# Procedure: as §2
Substance,"effect on content of hydroxyproline in lung fibrosis model cells (FIG. 1-3), in words [1]",Hydroxyproline Content Inhibition Rate in the Pulmonary Fibrosis Model ([1]; 4 uM),Hydroxyproline Content Inhibition Rate in the Pulmonary Fibrosis Model ([1]; 8 uM),Inhibitory Effects on Various Pulmonary Infections (Mycoplasma pneumoniae),Inhibitory Effects on Various Pulmonary Infections (protozoa),Inhibitory Effects on Various Pulmonary Infections (pneumonia fungi),"tumor growth inhibition rate, MTT Assay (Adenocarcinoma)","tumor growth inhibition rate, MTT Assay (Adenosquamous carcinoma)","tumor growth inhibition rate, MTT Assay (Large cell lung cancer)","tumor growth inhibition rate, MTT Assay [2]","tumor growth inhibition rate, MTT Assay (Small Cell Lung Cancer)","tumor growth inhibition rate, MTT Assay (Squamous cell carcinoma)"
Ile-Val-Arg-Arg-Ala-Asp-Arg-Ala-Ala-Val-Pro-Gly-Gly-Gly-Gly-Arg-Gly-Asp-Gly-Gly-Gly-Gly-Pro-(D-Pyr)-(D-Cys)-Bip-Arg-Gly-Glu [Polypeptide V],can inhibit the content of hydroxyproline in lung fibrosis model cells,34.47%,49.25%,34.37 ± 14.40%,53.19 ± 20.63%,50.50 ± 16.77%,75.52 ± 15.25%,51.56 ± 13.97%,75.74 ± 16.27%,79.78 ± 20.01%,60.60 ± 14.68%,57.18 ± 10.83%
Pro-(D-Pyr)-(D-Cys)-Bip-Arg-Gly-Glu-Gly-Gly-Gly-Gly-Ile-Val-Arg-Arg-Ala-Asp-Arg-Ala-Ala-Val-Pro-Gly-Gly-Gly-Gly-Arg-Gly-Asp [Polypeptide I],can inhibit the content of hydroxyproline in lung fibrosis model cells,36.50%,52.14%,29.89 ± 12.97%,46.25 ± 18.59%,43.91 ± 15.11%,65.67 ± 13.74%,44.84 ± 12.58%,65.87 ± 14.65%,69.38 ± 18.03%,52.70 ± 13.22%,49.73 ± 9.76%
Ile-Val-Arg-Arg-Ala-Asp-Arg-Ala-Ala-Val-Pro-Gly-Gly-Gly-Gly-Pro-(D-Pyr)-(D-Cys)-Bip-Arg-Gly-Glu-Gly-Gly-Gly-Gly-Arg-Gly-Asp [Polypeptide II],can inhibit the content of hydroxyproline in lung fibrosis model cells,31.28%,57.35%,39.16 ± 11.16%,60.59 ± 17.27%,57.52 ± 16.39%,86.03 ± 15.85%,58.73 ± 10.82%,86.28 ± 15.90%,90.88 ± 16.75%,69.03 ± 12.72%,65.14 ± 12.00%
